Measured values from ChEMBL document CHEMBL4715829, “Heterodimeric Rifampicin-Tobramycin conjugates break intrinsic resistance of Pseudomonas aeruginosa to doxycycline and chloramphenicol in vitro and in a Galleria mellonella in vivo model” (Eur J Med Chem, 2019).

Key:
Pseudomonas aeruginosa [1] = experiment: Antibacterial activity against Pseudomonas aeruginosa 262-101856 assessed as reduction in bacterial growth incubated for 18 hrs by broth microdilution assay; assay type: functional
Pseudomonas aeruginosa [2] = experiment: Antibacterial activity against Pseudomonas aeruginosa 114228 assessed as reduction in bacterial growth incubated for 18 hrs by broth microdilution assay; assay type: functional
[3] = Cytotoxicity against human HEK293 cells assessed as cell viability at 50 uM incubated for 48 hrs by prestoblue assay; assay type: cell-based; settings: read-out: Activity
[4] = system: Stenotrophomonas maltophilia; experiment: Antibacterial activity against Stenotrophomonas maltophilia CAN-ICU 62584 assessed as reduction in bacterial growth incubated for 18 hrs by broth microdilution assay; assay type: functional
Klebsiella pneumoniae = experiment: Antibacterial activity against Klebsiella pneumoniae ATCC 13883 assessed as reduction in bacterial growth incubated for 18 hrs by broth microdilution assay; assay type: functional
Pseudomonas aeruginosa [5] = experiment: Antibacterial activity against Pseudomonas aeruginosa PAO1 assessed as fractional inhibitory concentration index in presence of Minocycline incubated for 18 hrs by broth microdilution assay based checkerboard assay; assay type: functional
Pseudomonas aeruginosa [6] = experiment: Antibacterial activity against Pseudomonas aeruginosa PAO1 assessed as fractional inhibitory concentration index in presence of Clindamycin incubated for 18 hrs by broth microdilution assay based checkerboard assay; assay type: functional
Pseudomonas aeruginosa [7] = experiment: Antibacterial activity against Pseudomonas aeruginosa PAO1 assessed as reduction in bacterial growth by measuring moxifloxacin MIC at <=10 uM in presence of moxifloxacin incubated for 18 hrs by broth microdilution assay based checkerboard assay (reference value: 1 microg/ml); assay type: functional; settings: dose microM <=10
Pseudomonas aeruginosa [8] = experiment: Antibacterial activity against Pseudomonas aeruginosa PAO1 assessed as fractional inhibitory concentration index in presence of Pleuromutilin incubated for 18 hrs by broth microdilution assay based checkerboard assay; assay type: functional
[9] = Cytotoxicity against human HepG2 cells assessed as cell viability at <10 uM incubated for 48 hrs prestoblue assay; assay type: cell-based; settings: read-out: Activity
Pseudomonas aeruginosa [10] = experiment: Antibacterial activity against Pseudomonas aeruginosa PAO1 assessed as fractional inhibitory concentration index in presence of Tigecycline incubated for 18 hrs by broth microdilution assay based checkerboard assay; assay type: functional
Pseudomonas aeruginosa [11] = experiment: Antibacterial activity against Pseudomonas aeruginosa PAO1 assessed as fractional inhibitory concentration index in presence of Ceftazidime incubated for 18 hrs by broth microdilution assay based checkerboard assay; assay type: functional
Escherichia coli = experiment: Antibacterial activity against Escherichia coli ATCC 25922 assessed as reduction in bacterial growth incubated for 18 hrs by broth microdilution assay; assay type: functional
[12] = system: Staphylococcus epidermidis; experiment: Antibacterial activity against methicillin-resistance Staphylococcus epidermidis CAN-ICU 61589 (CAZ>32) assessed as reduction in bacterial growth incubated for 18 hrs by broth microdilution assay; assay type: functional
Pseudomonas aeruginosa [13] = experiment: Antibacterial activity against Pseudomonas aeruginosa PAO1 assessed as reduction in bacterial growth by measuring meropenem MIC at <=10 uM in presence of meropenem incubated for 18 hrs by broth microdilution assay based checkerboard assay (reference value: 1 microg/ml); assay type: functional; settings: dose microM <=10
Staphylococcus aureus [14] = experiment: Antibacterial activity against methicillin-resistance Staphylococcus aureus ATCC 33592 assessed as reduction in bacterial growth incubated for 18 hrs by broth microdilution assay; assay type: functional
[15] = system: Staphylococcus epidermidis; experiment: Antibacterial activity against methicillin-susceptible Staphylococcus epidermidis CANWARD 81388 assessed as reduction in bacterial growth incubated for 18 hrs by broth microdilution assay; assay type: functional
Pseudomonas aeruginosa [16] = experiment: Antibacterial activity against wild type Pseudomonas aeruginosa PAO1 assessed as reduction in bacterial growth incubated for 18 hrs by broth microdilution assay; assay type: functional
Pseudomonas aeruginosa [17] = experiment: Antibacterial activity against Pseudomonas aeruginosa PAO1 assessed as reduction in bacterial growth by measuring tigecycline MIC at <=10 uM in presence of tigecycline incubated for 18 hrs by broth microdilution assay based checkerboard assay (reference value: 4 microg/ml); assay type: functional; settings: dose microM <=10
Pseudomonas aeruginosa [18] = experiment: Antibacterial activity against Pseudomonas aeruginosa PAO1 assessed as reduction in bacterial growth by measuring linezolid MIC at <=10 uM in presence of linezolid incubated for 18 hrs by broth microdilution assay based checkerboard assay (reference value: 1024 microg/ml); assay type: functional; settings: dose microM <=10
Staphylococcus aureus [19] = experiment: Antibacterial activity against Staphylococcus aureus ATCC 29213 assessed as reduction in bacterial growth incubated for 18 hrs by broth microdilution assay; assay type: functional
Pseudomonas aeruginosa [20] = experiment: Antibacterial activity against Pseudomonas aeruginosa 91433 assessed as reduction in bacterial growth incubated for 18 hrs by broth microdilution assay; assay type: functional
Pseudomonas aeruginosa [21] = experiment: Antibacterial activity against Pseudomonas aeruginosa 100036 assessed as reduction in bacterial growth incubated for 18 hrs by broth microdilution assay; assay type: functional
Pseudomonas aeruginosa [22] = experiment: Antibacterial activity against Pseudomonas aeruginosa PAO1 assessed as reduction in bacterial growth by measuring tobramycin MIC at <=10 uM in presence of tobramycin incubated for 18 hrs by broth microdilution assay based checkerboard assay (reference value: 1 microg/ml); assay type: functional; settings: dose microM <=10
Pseudomonas aeruginosa [23] = experiment: Antibacterial activity against Pseudomonas aeruginosa PAO1 assessed as fractional inhibitory concentration index in presence of Chloramphenicol incubated for 18 hrs by broth microdilution assay based checkerboard assay; assay type: functional
Pseudomonas aeruginosa [24] = experiment: Antibacterial activity against Pseudomonas aeruginosa PAO1 assessed as reduction in bacterial growth by measuring colistin MIC at <=10 uM in presence of colistin incubated for 18 hrs by broth microdilution assay based checkerboard assay (reference value: 1 microg/ml); assay type: functional; settings: dose microM <=10
Pseudomonas aeruginosa [25] = experiment: Antibacterial activity against Pseudomonas aeruginosa PAO1 assessed as fractional inhibitory concentration index in presence of Meropenem incubated for 18 hrs by broth microdilution assay based checkerboard assay; assay type: functional
Pseudomonas aeruginosa [26] = experiment: Antibacterial activity against Pseudomonas aeruginosa PAO1 assessed as reduction in bacterial growth by measuring novobiocin MIC at <=10 uM in presence of novobiocin incubated for 18 hrs by broth microdilution assay based checkerboard assay (reference value: 512 microg/ml); assay type: functional; settings: dose microM <=10
Pseudomonas aeruginosa [27] = experiment: Antibacterial activity against Pseudomonas aeruginosa PAO1 assessed as fractional inhibitory concentration index in presence of Doxycycline incubated for 18 hrs by broth microdilution assay based checkerboard assay; assay type: functional
[28] = Cytotoxicity against human HepG2 cells assessed as cell viability at 50 uM incubated for 48 hrs by prestoblue assay; assay type: cell-based; settings: read-out: Activity
Enterococcus faecium = experiment: Antibacterial activity against Enterococcus faecium ATCC 27270 assessed as reduction in bacterial growth incubated for 18 hrs by broth microdilution assay; assay type: functional
Pseudomonas aeruginosa [29] = experiment: Antibacterial activity against Pseudomonas aeruginosa PAO1 assessed as fractional inhibitory concentration index in presence of Rifampicin incubated for 18 hrs by broth microdilution assay based checkerboard assay; assay type: functional

## CO[C@H]1/C=C/O[C@@]2(C)Oc3c(C)c(O)c4c(O)c(c(/C=N/N5CCN(Cc6cn(CCCCO[C@@H]7[C@@H](O[C@H]8O[C@H](CO)[C@@H](O)[C@H](N)[C@H]8O)[C@H](N)C[C@H](N)[C@H]7O[C@H]7O[C@H](CN)[C@@H](O)C[C@H]7N)nn6)CC5)c(O)c4c3C2=O)NC(=O)/C(C)=C\C=C\[C@H](C)[C@H](O)[C@@H](C)[C@@H](O)[C@@H](C)[C@H](OC(C)=O)[C@@H]1C.O=C(O)C(F)(F)F.O=C(O)C(F)(F)F.O=C(O)C(F)(F)F.O=C(O)C(F)(F)F.O=C(O)C(F)(F)F
Pseudomonas aeruginosa [1]
  MIC: > 256 µg/mL
Pseudomonas aeruginosa [2]
  MIC: > 128 µg/mL
[3]
  viability at 48 h, 50 µM: > 70%
[4]
  MIC: > 32 µg/mL
Klebsiella pneumoniae
  MIC: > 32 µg/mL
Pseudomonas aeruginosa [5]
  fractional inhibitory concentration index (FICI): 0.26
Pseudomonas aeruginosa [6]
  fractional inhibitory concentration index (FICI): 0.53
Pseudomonas aeruginosa [7]
  MIC: 1 µg/mL
Pseudomonas aeruginosa [8]
  fractional inhibitory concentration index (FICI): 1.03
[9]
  viability at 48 h: > 90%
Pseudomonas aeruginosa [10]
  fractional inhibitory concentration index (FICI): 0.51
Pseudomonas aeruginosa [11]
  fractional inhibitory concentration index (FICI): 1.03
Escherichia coli
  MIC: > 32 µg/mL
[12]
  MIC: 2 µg/mL
Pseudomonas aeruginosa [13]
  MIC: 1 µg/mL
Staphylococcus aureus [14]
  MIC: > 32 µg/mL
[15]
  MIC: 2 µg/mL
Pseudomonas aeruginosa [16]
  MIC: 512 µg/mL
Pseudomonas aeruginosa [17]
  MIC: 2 µg/mL
Pseudomonas aeruginosa [18]
  MIC: 1020 µg/mL
Staphylococcus aureus [19]
  MIC: 4 µg/mL
Pseudomonas aeruginosa [20]
  MIC: > 128 µg/mL
Pseudomonas aeruginosa [21]
  MIC: > 256 µg/mL
Pseudomonas aeruginosa [22]
  MIC: 1 µg/mL
Pseudomonas aeruginosa [23]
  fractional inhibitory concentration index (FICI): 0.28
Pseudomonas aeruginosa [24]
  MIC: 0.5 µg/mL
Pseudomonas aeruginosa [25]
  fractional inhibitory concentration index (FICI): 1.03
Pseudomonas aeruginosa [26]
  MIC: 256 µg/mL
Pseudomonas aeruginosa [27]
  fractional inhibitory concentration index (FICI): 0.09
[28]
  viability at 48 h, 50 µM: > 70%
Enterococcus faecium
  MIC: 32 µg/mL
Pseudomonas aeruginosa [29]
  fractional inhibitory concentration index (FICI): 0.28
